Reference: EP4603105A1, “PHARMACEUTICAL COMPOSITION CONTAINING CYCLIC COMPOUND HAVING SELECTIVE KRAS INHIBITORY EFFECT AGAINST HRAS AND NRAS” (CHUGAI SEIYAKU KABUSHIKI KAISHA, priority 2022, dated 2024)
Where two headings read alike, the source gives them in different places.

Tests used:
[1] = target: GDP-bound KRAS wild-type protein (Homo sapiens, UniProt P01116); assay: Binding to KRAS by surface plasmon resonance (SPR), dissociation constant KD
In short: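 Affinity is measured by surface plasmon resonance at 30°C against captured, GDP-loaded RAS carrying a biotinylated Avi tag. Compounds are titrated by single-cycle kinetics, and KD comes from a 1:1 fit.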

[2] = target: GDP-bound NRAS wild-type protein (Homo sapiens, UniProt P01111); assay: Binding to NRAS by surface plasmon resonance (SPR), KD and KD ratio to KRAS
In short: (§1)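 Biotinylated GDP-bound RAS was captured at about 100–300 RU. Running buffer: HBS pH 7.4, 10 mM MgCl2, 10 µM GDP, 1 mM DTT, 0.01% Tween 20, 4% DMSO.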

HRAS wild-type protein = HRAS wild-type protein (Homo sapiens, UniProt P01112); assay: Binding to HRAS by surface plasmon resonance (SPR), KD and KD ratio to KRAS
In short: as §1

[3] = system: human lung cancer strain NCI-H441; assay: NCI-H441 cell proliferation inhibitory activity (CellTiter-Glo, 4 days); format: cell-based; conditions: read-out: NCl-H441 IC50
In short: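 Step one: dispense the test compound in serial DMSO dilutions. Step three: add the reagent and measure […].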

[4] = ratio of KD for GDP-bound NRAS wild-type protein to KD for KRAS
[5] = ratio of KD for HRAS wild-type protein to KD for KRAS
[6] = Single Cycle Kinetics, 1:1 binding model
[7] = ratio of KD with respect to GDP-bound NRAS wild-type protein to KD with respect to KRAS
[8] = ratio of KD with respect to HRAS wild-type protein to KD with respect to KRAS
[9] = 50% proliferation inhibitory concentration, four days

Sequence of GDP-bound KRAS wild-type protein (P01116 1-188 isoform P01116-2): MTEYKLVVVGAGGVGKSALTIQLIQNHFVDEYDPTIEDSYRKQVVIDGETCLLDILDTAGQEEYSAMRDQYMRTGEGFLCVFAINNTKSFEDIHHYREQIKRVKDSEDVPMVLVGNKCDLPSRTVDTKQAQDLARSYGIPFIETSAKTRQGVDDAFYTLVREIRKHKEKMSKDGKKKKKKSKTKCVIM
Sequence of GDP-bound NRAS wild-type protein (P01111 whole entry): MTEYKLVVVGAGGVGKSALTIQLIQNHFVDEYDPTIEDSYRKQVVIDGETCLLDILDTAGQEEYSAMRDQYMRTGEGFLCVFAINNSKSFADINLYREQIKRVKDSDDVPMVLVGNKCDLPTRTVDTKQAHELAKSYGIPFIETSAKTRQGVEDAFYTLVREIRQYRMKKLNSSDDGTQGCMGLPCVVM
Sequence of HRAS wild-type protein (P01112 whole entry): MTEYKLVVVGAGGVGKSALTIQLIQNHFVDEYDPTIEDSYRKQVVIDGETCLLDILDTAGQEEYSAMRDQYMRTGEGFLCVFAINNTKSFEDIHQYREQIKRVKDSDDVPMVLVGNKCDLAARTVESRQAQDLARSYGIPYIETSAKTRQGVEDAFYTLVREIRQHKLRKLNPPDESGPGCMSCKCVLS

| Kd ([1]; 1:1 binding model) | IC50 ([3]; NCI-H441 cells, 4 days) | Kd ([1]; Single Cycle Kinetics) | Kd [1, 6] | IC50 [3, 9] | Structure (SMILES) | NRAS /KRAS [2, 4] | HRAS /KRAS (HRAS wild-type protein; [5]) | NRAS /KRAS [2, 7] | HRAS /KRAS (HRAS wild-type protein; [8]) |
| --- | --- | --- | --- | --- | --- | --- | --- | --- | --- |
| 0.98 nM | 66 nM | – | – | – | CCCOC[C@H]1C(=O)N[C@@H]([C@@H](C)CC)C(=O)N(C)CC(=O)N(C)[C@H]2C/C=C\CCN(C2=O)[C@@H](CC2CCC(F)(F)CC2)C(=O)N(C)CC(=O)N[C@@H](CCc2ccc(C(F)(F)F)c(OC)c2)C(=O)N2C[C@H](OCC)C[C@H]2C(=O)NC2(CC(C)(C)C2)C(=O)N(C)[C@@H](C(CC)CC)C(=O)N(C)[C@H](C(=O)N(C)C)CC(=O)N1C [PP2464] | A (a compound having 10 or more and less than 20 is denoted as A) | A (a compound having 10 or more and less than 20 is denoted as A) | – | – |
| – | 8.8 nM | 0.25 nM | – | – | CCO[C@@H]1C[C@H]2C(=O)NC3(CCCC3)C(=O)N(C)[C@@H](C3CCCC3)C(=O)N(C)[C@H](C(=O)N(C)C)CC(=O)N(C)[C@@H](CC(C)C)C(=O)N[C@@H]([C@@H](C)CC)C(=O)N(C)CC(=O)N(C)[C@H]3C/C(F)=C\CCN(C3=O)[C@@H](Cc3ccc(C)cc3)C(=O)N(C)CC(=O)N[C@@H](CCc3ccc(C(F)(F)F)c(OC)c3)C(=O)N2C1 [PP3512] | B (a compound having 3 or more and less than 10 is denoted as B) | B (a compound having 3 or more and less than 10 is denoted as B) | – | – |
| 0.5 nM | 60.1 nM | – | – | – | CCOC[C@H]1C(=O)N[C@@H]([C@@H](C)CC)C(=O)N(C)CC(=O)N(C)[C@H]2C/C=C\CCN(C2=O)[C@@H](Cc2ccc(C)cc2)C(=O)N(C)CC(=O)N[C@@H](CCc2cc(F)c(C(F)(F)F)c(F)c2)C(=O)N2C[C@@H](C)C[C@H]2C(=O)NC2(CC(C)(C)C2)C(=O)N(C)[C@@H](C2CCCC2)C(=O)N(C)[C@H](C(=O)N(CC)CC)CC(=O)N1C [PP2407] | A (a compound having 10 or more and less than 20 is denoted as A) | A (a compound having 10 or more and less than 20 is denoted as A) | – | – |
| 5.1 nM | 384 nM | – | – | – | CCC(CC)[C@H]1C(=O)N(C)[C@H](C(=O)N(C)C)CC(=O)N(C)[C@@H](COC)C(=O)N[C@@H]([C@@H](C)CC)C(=O)N(C2CC2)CC(=O)N(C)[C@H]2C/C=C\CCN(C2=O)[C@@H](CC2CCCCC2)C(=O)N(C)CC(=O)N[C@@H](CCc2cc(F)c(C(F)(F)F)c(F)c2)C(=O)N2C[C@H](OC(C)C)C[C@H]2C(=O)NC2(CC(C)(C)C2)C(=O)N1C [PP2515] | A (a compound having 10 or more and less than 20 is denoted as A) | A (a compound having 10 or more and less than 20 is denoted as A) | – | – |
| 0.33 nM | 7.6 nM | – | – | – | CCC[C@H]1C(=O)N[C@@H]([C@@H](C)CC)C(=O)N(C2CC2)CC(=O)N(C)[C@H]2C/C=C\CCN(C2=O)[C@@H](Cc2ccc(C)cc2)C(=O)N(C)CC(=O)N[C@@H](CCc2cc(F)c(C(F)(F)F)c(F)c2)C(=O)N2C[C@H](OCC)C[C@H]2C(=O)NC2(CC(C)(C)C2)C(=O)N(C)[C@@H](CC(C)(C)C)C(=O)N(C)[C@H](C(=O)N(C)C)CC(=O)N1C [PP2718] | A (a compound having 10 or more and less than 20 is denoted as A) | A (a compound having 10 or more and less than 20 is denoted as A) | – | – |
| – | – | – | 0.061 nM | 30.3 nM | CCO[C@@H]1C[C@H]2C(=O)NC3(CCC3)C(=O)N(C)[C@@H](C3CCCC3)C(=O)N(C)[C@H](C(=O)N(C)C)CC(=O)N(C)[C@@H](Cc3ccc(C#N)cc3)C(=O)N[C@@H]([C@@H](C)CC)C(=O)N(C)CC(=O)N(C)[C@H]3CCCCCN(C3=O)[C@@H](Cc3ccc(F)cc3)C(=O)N(C)CC(=O)N[C@@H](CCc3cc(F)c(C(F)(F)F)c(F)c3)C(=O)N2C1 [PP1157] | – | – | B (a compound having 3 or more and less than 10 is denoted as B) | B (a compound having 3 or more and less than 10 is denoted as B) |
| – | – | – | 0.061 nM | 2.9 nM | CC[C@H](C)[C@@H]1NC(=O)[C@H](CC2CC2)N(C)C(=O)C[C@@H](C(=O)N(C)C)N(C)C(=O)[C@H](C2CCCC2)N(C)C(=O)C2(CCCC2)NC(=O)[C@@H]2CCCN2C(=O)[C@H](CCc2cc(F)c(C(F)(F)F)c(F)c2)NC(=O)CN(C)C(=O)[C@H](Cc2ccc(C(F)(F)F)cc2)N2C[C@H](C)[C@H](C)C[C@@H](C2=O)N(C)C(=O)CN(C)C1=O [PP1368] | – | – | A (a compound having 10 or more and less than 20 is denoted as A) | B (a compound having 3 or more and less than 10 is denoted as B) |
| – | – | – | 0.081 nM | 6.6 nM | CCO[C@@H]1C[C@H]2C(=O)NC3(CCC3)C(=O)N(C)[C@@H](C3CCCC3)C(=O)N(C)[C@H](C(=O)N3CCOCC3)CC(=O)N(C)[C@@H](CC)C(=O)N[C@@H]([C@@H](C)CC)C(=O)N(C)CC(=O)N(C)[C@H]3CC[C@@H](C)CN(C3=O)[C@@H](Cc3ccc(C(F)(F)F)cc3)C(=O)N(C)CC(=O)N[C@@H](CCc3ccc(C(F)(F)F)c(Cl)c3)C(=O)N2C1 [PP1378] | – | – | B (a compound having 3 or more and less than 10 is denoted as B) | C (A compound having a KD ratio of 0.1 or more and less than 3 is denoted as C) |
| – | – | – | 0.17 nM | 42.7 nM | CCCC[C@H]1C(=O)NC2(CCC2)C(=O)N(C)[C@@H](C2CCCC2)C(=O)N(C)[C@H](C(=O)N(C)C)CC(=O)N(C)[C@@H](CC)C(=O)N[C@@H]([C@@H](C)CC)C(=O)N(C)CC(=O)N(C)[C@H]2C/C=C\CCN(C2=O)[C@@H](Cc2ccc(C(F)(F)F)cc2)C(=O)N(C)CC(=O)N[C@@H](CCc2cc(F)c(C(F)(F)F)c(F)c2)C(=O)N1C [PP1150] | – | – | AA (a compound having 20 or more is denoted as AA) | A (a compound having 10 or more and less than 20 is denoted as A) |
| – | 29.3 nM | 0.86 nM | – | – | C=C(C)C[C@H]1C(=O)N(C)[C@H](C(=O)N(C)C)CC(=O)N(C)[C@@H](CCC)C(=O)N[C@@H]([C@@H](C)CC)C(=O)N(C)CC(=O)N(C)[C@H]2C/C=C\CCN(C2=O)[C@@H](Cc2ccc(C(F)(F)F)cc2)C(=O)N(C)CC(=O)N[C@@H](CCc2ccc(C(F)(F)F)c(OC)c2)C(=O)N2C[C@H](OCC)C[C@H]2C(=O)N(C)C2(CCC2)C(=O)N1C [PP3332] | A (a compound having 10 or more and less than 20 is denoted as A) | B (a compound having 3 or more and less than 10 is denoted as B) | – | – |
| – | – | – | 0.076 nM | 8.7 nM | CCO[C@@H]1C[C@H]2C(=O)NC3(CCCC3)C(=O)N(C)[C@@H](C3CCCC3)C(=O)N(C)[C@H](C(=O)N3CCOCC3)CC(=O)N(C)[C@@H](CC)C(=O)N[C@@H]([C@@H](C)CC)C(=O)N(C)CC(=O)N(C)[C@H]3C[C@H](C)C(C)CN(C3=O)[C@@H](Cc3ccc(C(F)(F)F)cc3)C(=O)N(C)CC(=O)N[C@@H](CCc3cc(F)c(C(F)(F)F)c(F)c3)C(=O)N2C1 (stereo partly drawn) [PP1348] | – | – | B (a compound having 3 or more and less than 10 is denoted as B) | B (a compound having 3 or more and less than 10 is denoted as B) |
| – | 57.7 nM | 0.71 nM | – | – | CCC[C@H]1C(=O)N[C@@H](C2CCCC2)C(=O)N(C)CC(=O)N(C)[C@H]2C/C=C\CCN(C2=O)[C@@H](Cc2ccc(C)cc2)C(=O)N(C)CC(=O)N[C@@H](CCc2ccc(C(F)(F)F)c(Cl)c2)C(=O)N2CC3(CC3)C[C@H]2C(=O)NC2(CCC2)C(=O)N(C)[C@@H](C(CC)CC)C(=O)N(C)[C@H](C(=O)N(C)C)CC(=O)N1C [PP3432] | AA (a compound having 20 or more is denoted as AA) | A (a compound having 10 or more and less than 20 is denoted as A) | – | – |
